Measurements taken from article PMC10820861, “Furofuranoid-Type Lignans and Related Phenolics from Anisacanthus virgularis (Salisb.) Nees with Promising Anticholinesterase and Anti-Ageing Properties: A Study Supported by Molecular Modelling” (Plants, 2024).
“And” between values parts separate entries of the source, which are not always exact repeats. Identical values can stand only once. Like-named read-outs stand apart in the source and are kept apart here.

What was measured:
AChE = molecular target: T1, AChE (Electrophorus electricus, UniProt O42275); test: biochemical; conditions: for IC50 / % Inhibition of AChE: mean ± SD; for inhibition at 0.01 µM / inhibition at 0.1 µM / inhibition at 1 µM / inhibition at 10 µM: read-out: % Inhibition of AChE
T1 construct: purchased
Description: The preparation of the sample was the same as has been previously described. The AChE-inhibitory effect of the furofuranoid lignans 1–5 was determined using an AChE inhibitor screening kit (the Quanti-Chrome assay kit). […] The 96-well plate reaction was prepared according to the manufacturer’s protocol.

TERT = TERT enzyme (telomerase activation) assay in normal melanocyte HFB4 cells; format: cell-based, human; conditions: 1 μM; for TERT Concentration Mean ± SD / Relative Increase (TERT vs untreated HFB4 control): 24 h; for Relative Increase (TERT vs untreated HFB4 control): control = 1
Description: In the present study, we assessed the in vitro anti-ageing activity of the lignan-type compounds 1–5 utilizing a TERT enzyme assay (Table 3). The normal melanocyte cell line (HFB4) was used as a model system in this study, and curcumin (1 μM) was used as a standard telomerase activator [47]. According to the report, curcumin has made it possible for model organisms to live longer, reduced the signs of ageing, and slowed the onset of age-related illnesses where cellular senescence is a direct cause.
TERT activity assay was used for in vitro investigation of the compound’s anti-ageing properties. The HFB4 (VACSERA, Giza, Egypt) was used as a model system for the study of amplification of telomers in response to our test compounds and curcumin. HFB4 cells were cultivated in RPMI-1640 medium enriched with heat-inactivated FBS (10%) and penicillin–streptomycin (100 U/mL). HFB4 cells (2 × 10^5) were plated and incubated in a 5% CO2 humidified atmosphere at 37 °C for 24 h. The cells were then left untreated (negative control), treated with tested compounds and with 1 μM curcumin, a standard activator for TERT. The supernatant from the various conditions was collected after 24 h, centrifuged for 20 min at 1000× g at 4 ℃, and immediately submitted for the assay as previously described. The different supernatants were added separately to a microtiter plate pre-coated with a TERT-specific antibody (Ab) and then incubated with a TERT-specific biotin detection Ab. Then, streptavidin/horseradish peroxidase (SABC) conjugate was added to all wells and incubated. […] The optical density (OD) was measured spectrophotometrically at 450 nm. The TERT concentration was determined by comparing the OD of the samples with the standard curve prepared according to the instructions of the manufacturer. The relative OD450 = (OD450 of the reaction well) − (OD450 of no treatment well). The standard curve was plotted by drawing the relative OD450 of each standard solution (Y) versus the respective concentration of the standard solution (X). The human TERT concentration of the samples was interpolated from the standard curve.

AChE enzyme = system: AChE enzyme; parameters: method as in doi:10.25135/rnp.71.17.04.074; conditions: 250 µg/mL; cited from earlier work
[1] = system: butyrylcholinesterase enzyme; parameters: method as in doi:10.25135/rnp.71.17.04.074; conditions: 250 µg/mL; cited from earlier work
memory decline = conditions: 25 mg/kg, p.o.; dose-dependent; cited from earlier work
[2] = system: hippocampal long-term potentiation; parameters: method as in PMID 30685474; conditions: 50 μM; cited from earlier work
acetylcholinesterase = conditions: concentration-dependent; cited from earlier work
neuro2a cells = system: neuro2a cells; parameters: method as in PMID 30685474; conditions: cited from earlier work
[3] = read-out: IC50 (AChE inhibition)

T1 sequence (O42275 24-633): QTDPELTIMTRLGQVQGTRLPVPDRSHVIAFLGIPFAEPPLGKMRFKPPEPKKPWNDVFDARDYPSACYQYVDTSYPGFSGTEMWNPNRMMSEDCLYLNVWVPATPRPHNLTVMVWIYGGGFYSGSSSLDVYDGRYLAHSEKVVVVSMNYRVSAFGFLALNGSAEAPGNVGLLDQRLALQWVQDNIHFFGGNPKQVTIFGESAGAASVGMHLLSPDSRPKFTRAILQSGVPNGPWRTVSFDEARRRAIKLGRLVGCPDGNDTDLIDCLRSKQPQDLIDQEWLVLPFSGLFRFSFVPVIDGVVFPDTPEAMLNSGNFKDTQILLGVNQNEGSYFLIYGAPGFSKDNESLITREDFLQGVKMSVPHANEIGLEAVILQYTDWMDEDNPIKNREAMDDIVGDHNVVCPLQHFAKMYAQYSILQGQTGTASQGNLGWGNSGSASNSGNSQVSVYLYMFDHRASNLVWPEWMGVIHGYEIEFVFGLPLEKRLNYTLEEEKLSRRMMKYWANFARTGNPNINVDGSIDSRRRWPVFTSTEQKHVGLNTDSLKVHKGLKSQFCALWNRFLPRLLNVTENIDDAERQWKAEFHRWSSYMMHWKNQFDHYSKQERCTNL

| Compound | IC50 (AChE; [3]) | inhibition at 0.01 µM (AChE) [%] | inhibition at 0.1 µM (AChE) [%] | inhibition at 1 µM (AChE) [%] | inhibition at 10 µM (AChE) [%] | increase in telomerase activity compared to untreated cells (TERT) | TERT Concentration Mean ± SD (TERT) [ng/mL] | Relative Increase (TERT vs untreated HFB4 control) (TERT) | inhibitory effect on the AChE enzyme (AChE enzyme) [%] | inhibitory effect on the butyrylcholinesterase enzyme [1] [%] | IC50 (AChE; IC50 (AChE inhibition)) [nM] | effect on memory decline in dementia model (memory decline) | effect on induction of hippocampal long-term potentiation [2] | effect on acetylcholinesterase activity (acetylcholinesterase) | effect on calcium influx (neuro2a cells) | % Inhibition of AChE (AChE; 0.01 µM) [%] | % Inhibition of AChE (AChE; 0.1 µM) [%] | % Inhibition of AChE (AChE; 1 µM) [%] | % Inhibition of AChE (AChE; 10 µM) [%] |
| --- | --- | --- | --- | --- | --- | --- | --- | --- | --- | --- | --- | --- | --- | --- | --- | --- | --- | --- | --- |
| COc1cc([C@H]2OC[C@H]3[C@@H]2CO[C@@H]3c2cc(OC)c3c(c2)[C@H](CO)[C@@H](c2ccc(O[C@@H]4O[C@H](CO)[C@@H](O)[C@H](O)[C@H]4O)c(OC)c2)O3)ccc1O [Compound 1, anisacanthin] | 85 nM | 24 ± 1 | 61 ± 1 | 75 ± 2 | 83 ± 2 | 1.64 fold | 2.8 ± 0.04 | 1.64 | – | – | – | – | – | – | – | – | – | – | – |
| COc1cc([C@H]2OC[C@H]3[C@@H]2CO[C@@H]3c2ccc(O[C@@H]3O[C@H](CO)[C@@H](O)[C@H](O)[C@H]3O)c(OC)c2)ccc1O [Compound 5, pinoresinol 4-O-β-D-glucoside] | 64.5 nM and 64 nM | 28 ± 3 | 59 ± 4 | 79 ± 1 | 88 ± 3 | 1.66 fold | 2.8 ± 0.09 | 1.66 | 20.17 ± 0.44 | 11.02 ± 0.35 | – | – | – | – | – | – | – | – | – |
| COc1cc([C@H]2OC[C@H]3[C@@H]2CO[C@H]3c2ccc(O)c(OC)c2)ccc1O (relative stereo) [Compound 3, epipinoresinol] | – | 23 ± 1 | 44 ± 1 | 60 ± 2 | 82 ± 3 | a little weak | 2.0 ± 0.06 | 1.18 | – | – | 242 ± 9 | – | – | – | – | – | – | – | – |
| COc1cc(/C=C/C(=O)CC(=O)/C=C/c2ccc(O)c(OC)c2)ccc1O [Curcumin, curcumin, reference compound] | – | – | – | – | – | 1.62 fold | 2.8 ± 0.03 | 1.62 | – | – | – | – | – | – | – | – | – | – | – |
| COc1cc([C@H]2OC[C@H]3[C@@H]2CO[C@@H]3c2ccc(O)c(OC)c2)ccc1O (relative stereo) [Compound 2, pinoresinol] | – | 26 ± 1 | 41 ± 1 | 60 ± 3 | 75 ± 2 | a little weak | 2.2 ± 0.03 | 1.28 | – | – | 292 ± 9 | improved memory decline | aided the induction of hippocampal long-term potentiation | inhibited the activity of acetylcholinesterase in a concentration-dependent manner | aided calcium influx into neuro2a cells | – | – | – | – |
| phillyrin [Compound 4] | – | – | – | – | – | 1.72 fold and 1.71 fold | 2.9 ± 0.06 | 1.72 | – | – | – | – | – | – | – | 26 ± 3 | 41 ± 2 | 64 ± 2 | 73 ± 2 |
